The source of these data is patent US7919517B2, “Indazole derivatives” (Kyowa Hakko Kirin Co., Ltd., priority 2003, dated 2011).

Holding throughout (assay type): cell-based
Test [1] concerns human chronic myeloid leukemia cell line K562. The test is described as follows: Cytostatic activity on leukemia cell line K562 (WST-1). The settings on record: 72 hours, K562 cells; for inhibition at 10 µM: Homo sapiens, 10 μmol/L, read-out: cytostatic rate K562 (%) (10 μmol/L). Here is the method:
(§1) The cytostatic rates of a test compound on human acute myeloid leukemia cell lines MV-4-11 and ML-1, and human chronic myeloid leukemia cell line K562 were determined in the following manner.
(§2) Each cell was cultured using Roswell Park Memorial Institute's Medium (RPMI) 1640 (Gibco, Catalog No. 11875-093) containing 10% fetal bovine serum (Gibco, Catalog No. 10437-028) and 1% penicillin/streptomycin (1:1) (Gibco, Catalog No. 15140-122). Each 80 μL of the MV-4-11 cell having a concentration of 7.5×10^4 cells/mL (or the ML-1 cell or K562 cell having a concentration of 2.5×10^4 cells/mL) was inoculated to wells of a TC MICROWELL 96U plate (Nalge Nunc International, Catalog No. 163320) and was cultured in a 5% carbon dioxide gas incubator at 37° C. for 4 hours. As a blank, only RPMI medium (80 μL) was added to a well. Each 20 μL of a solution of the test compound in dimethyl sulfoxide (DMSO) which was prepared to make the final concentration to 10 μmol/L, was added to the MV-4-11 cell, ML-1 cell and K562 cell, respectively. Each 20 μL of DMSO was added to the control well and the blank well to […]. After adding the test compound, the cells were incubated in a 5% carbon dioxide gas incubator at 37° C. for 72 hours. After adding 20 μL of WST-1 reagent {4-[3-(4-iodophenyl)-2-(4-nitrophenyl)-2H-5-tetrazolio]-1,3-benzene disulfonate sodium salt} (Roche Diagnostics K.K., Catalog No. 1644807) diluted to 50% with RPMI medium, the cells were further incubated at 37° C. for 2 hours. Then, the absorbances at 450 nm (reference wavelength: 690 nm) were determined with a microplate spectrophotometer SPECTRA max 340PC (Molecular Devices Corporation). The relative growth (%) of a well to which the test compound had been added was determined while setting the absorbance of a well to which not the test compound but DMSO alone had been added (control) at 100% and that of a well containing RPMI medium alone at 0%. The cytostatic rate (%) of the test compound was determined by subtracting the calculated relative growth from 100.

The test system of test [2] is human acute myeloid leukemia cell line MV-4-11. The test is described as follows: Cytostatic activity on leukemia cell line MV-4-11 (WST-1). The settings on record: 72 hours, MV-4-11 cells; for inhibition at 10 µM: Homo sapiens, MV4-11, 10 μmol/L, read-out: cytostatic rate MV-4-11 (%) (10 μmol/L). The protocol: as §1, §2
For test [3], the system named is human colon cancer cell line Colo205. Nature of the test: Cytostatic activity on solid carcinoma cell line Colo205 (WST-1). The following applies: Homo sapiens, COLO 205; 10 μmol/L, 72 hours, Colo205 cells; read-out: cytostatic rate Colo205 (%) (10 μmol/L). Here is the method: as §2
The cytostatic rate of a test compound on the human colon cancer cell line Colo205 was determined in the following manner.
The cell was cultured using Roswell Park Memorial Institute's Medium (RPMI) 1640 (Gibco, Catalog No. 11875-093) containing 10% fetal bovine serum (Gibco, Catalog No. 10437-028) and 1% penicillin/streptomycin (1:1) (Gibco, Catalog No. 15140-122). Each 80 μL of the Colo205 having a concentration of 1.25×10^4 cells/mL was inoculated to wells of a TC MICROWELL 96F plate (Nalge Nunc International, Catalog No. 167008) and was cultured in a 5% carbon dioxide gas incubator at 37° C. for 24 hours. As a blank, only RPMI (80 μL) was added to a well. Each 20 μL of a solution of the test compound in DMSO which was prepared to make the final concentration to 10 μmol/L, was added to the Colo205 cell. Each 20 μL of DMSO was added to the control well and the blank well to […]. After adding the test compound, the cell was incubated in a 5% carbon dioxide gas incubator at 37° C. for 72 hours. The cytostatic rate (%) was then determined in the same way as the leukemia cell lines.

Test [4] concerns human acute myeloid leukemia cell line ML-1. Nature of the test: Cytostatic activity on leukemia cell line ML-1 (WST-1). The following applies: 72 hours, ML-1 cells; for inhibition at 10 µM: Homo sapiens, ML1, 10 μmol/L, read-out: cytostatic rate ML-1 (%) (10 μmol/L). The protocol: as §1, §2

Where a name gives a salt, the structure may show the parent alone.

For `O=C(c1ccc(/C=C/c2n[nH]c3ccccc23)cc1)N1CCC(C(=O)N2CCOCC2)CC1` [Compound 51, (E)-1-{4-[2-(1H-indazol-3-yl)vinyl]benzoyl}-4-(morpholinocarbonyl)piperidine], the inhibition at 10 µM in test [1] is 95%; in test [2], 98%; in test [3], 90%; in test [4], 89%.
For `O=C(NCCN1CCOCC1)c1ccc(/C=C/c2n[nH]c3ccccc23)cc1` [Compound 10, (E)-N-(2-morpholinoethyl)-4-[2-(1H-indazol-3-yl)vinyl]benzamide], in that order: 99%, 91%, 41% and 83%.
For `CC(C)(N)C(=O)N1CCN(C(=O)c2ccc(/C=C/c3n[nH]c4ccccc34)cc2)CC1` [Compound 131, (E)-4-(2-amino-2-methylpropionyl)-1-{4-[2-(1H-indazol-3-yl)vinyl]benzoyl}piperazine dihydrochloride], in that order: 98%, 99%, 91% and 85%.
As to `O=C(NC1CCN(C(=O)c2ccc(/C=C/c3n[nH]c4ccccc34)cc2)CC1)N1CCOCC1` [Compound 99, (E)-1-{4-[2-(1H-indazol-3-yl)vinyl]benzoyl}-4-(morpholinocarbonylamino)piperidine], the inhibition at 10 µM in test [1] turned out to be 94%; in test [2], 97%; in test [3], 95%; in test [4] it was 86%.
On to `O=C(c1ccc(/C=C/c2n[nH]c3ccccc23)cc1)N1CCN(C(=O)C2CC2)CC1` [Compound 55, (E)-4-cyclopropanecarbonyl-1-{4-[2-(1H-indazol-3-yl)vinyl]benzoyl}piperazine], for which the inhibition at 10 µM amounted to 81% in test [1], 97% in test [2], 89% in test [3] and 83% in test [4].
The matching figures for `NC1CCN(C(=O)c2ccc(/C=C/c3n[nH]c4ccccc34)cc2)C1` (stereo not shown) [Compound 122, (E)-1-{4-[2-(1H-indazol-3-yl)vinyl]benzoyl}-3-aminopyrrolidine dihydrochloride]: 93%, 98%, 89% and 79%.
With `COCCC(=O)N1CCN(C(=O)c2ccc(/C=C/c3n[nH]c4ccccc34)cc2)CC1` [Compound 98, (E)-4-(3-methoxypropionyl)-1-{4-[2-(1H-indazol-3-yl)vinyl]benzoyl}piperazine], the inhibition at 10 µM is 89% in test [1], 98% in test [2], 88% in test [3] and 79% in test [4].
On to `O=C(c1ccc(/C=C/c2n[nH]c3ccccc23)cc1)N1CCN(C(=O)[C@H]2CCNC2)CC1` [Compound 124, (S)-(E)-1-{4-[2-(1H-indazol-3-yl)vinyl]benzoyl}-4-(pyrrolidin-3-ylcarbonyl)piperazine dihydrochloride], for which the inhibition at 10 µM in test [1] was determined as 94%; in test [2], 98%; in test [3], 87%; in test [4], 83%.
Take `CS(=O)(=O)Nc1cc(/C=C/c2n[nH]c3ccccc23)ccc1OCCN1CCOCC1` [Compound 7, (E)-N-{5-[2-(1H-Indazol-3-yl)vinyl]-2-(2-morpholinoethoxy)phenyl}methanesulfonamide]: the inhibition at 10 µM in test [1] was determined as 98%; in test [2], 97%; in test [3] it was 89%; in test [4] it was 97%.
Turning to `CN(C)CC(=O)N1CCN(C(=O)c2ccc(/C=C/c3n[nH]c4ccccc34)cc2)CC1` [Compound 125, (E)-4-dimethylaminoacetyl-1-{4-[2-(1H-indazol-3-yl)vinyl]benzoyl}piperazine], the inhibition at 10 µM in test [1] amounted to 91%; in test [2], 98%; in test [3], 86%; in test [4] it was 79%.
With `CCOCC(=O)N1CCN(C(=O)c2ccc(/C=C/c3n[nH]c4ccccc34)cc2)CC1` [Compound 128, (E)-4-ethoxyacetyl-1-{4-[2-(1H-indazol-3-yl)vinyl]benzoyl}piperazine], the inhibition at 10 µM amounted to 87% in test [1], 98% in test [2], 88% in test [3] and 79% in test [4].
For `CN1CCCC1C(=O)N1CCN(C(=O)c2ccc(/C=C/c3n[nH]c4ccccc34)cc2)CC1` (stereo not shown) [Compound 145, (E)-4-[(1-methylpyrrolidin-2-yl)carbonyl]-1-{4-[2-(1H-indazol-3-yl)vinyl]benzoyl}piperazine], in that order: 94%, 99%, 92% and 85%.
The matching figures for `O=C(c1ccc(/C=C/c2n[nH]c3ccccc23)cc1)N1CCN(CCO)CC1` [Compound 105, (E)-1-{4-[2-(1H-indazol-3-yl)vinyl]benzoyl}-4-(2-hydroxyethyl)piperazine]: 90%, 96%, 88% and 85%.
As to `O=C(c1ccc(/C=C/c2n[nH]c3ccccc23)cc1)N1CCOCC1` [Compound 9, (E)-1{4-[2-(1H-indazol-3-yl)vinyl]benzoyl}morpholine], the “cytostatic rate K562 (%) (10 μmol/L)” value in test [1] was 98%. Also, in test [2], the “cytostatic rate MV-4-11 (%) (10 μmol/L)” value worked out at 91%. Also, the “cytostatic rate ML-1 (%) (10 μmol/L)” value in test [4] was 90%.
`Cl.O=C(c1ccc(/C=C/c2n[nH]c3ccccc23)cc1)N1CCC2(CC1)OCCO2` [Compound 16, (E)-4-ethylenedioxy-1-{4-[2-(1H-indazol-3-yl)vinyl]benzoyl}piperidine hydrochloride]: in test [1], the “cytostatic rate K562 (%) (10 μmol/L)” value turned out to be 94%. Further, the “cytostatic rate MV-4-11 (%) (10 μmol/L)” value in test [2] is recorded as 89%. Also, the “cytostatic rate ML-1 (%) (10 μmol/L)” value in test [4] is reported as 97%.
Turning to `NC(=O)c1cc(/C=C/c2n[nH]c3ccccc23)ccc1OCCN1CCOCC1` [Compound 8, (E)-5-[2-(1H-Indazol-3-yl)vinyl]-2-(2-morpholinoethoxy)benzamide], the inhibition at 10 µM amounted to 95% in test [1], 95% in test [2] and 84% in test [4].
Consider `CN(C)C(=O)c1ccc(/C=C/c2n[nH]c3ccccc23)cc1` [Compound 1, (E)-N,N-Dimethyl-4-[2-(1H-indazol-3-yl)vinyl]benzamide], for which the inhibition at 10 µM in test [1] turned out to be 95%; in test [2], 98%; in test [4], 93%.
Take `CNC(=O)c1ccc(/C=C/c2n[nH]c3ccccc23)cc1` [Compound 14, (E)-N-Methyl-4-[2-(1H-indazol-3-yl)vinyl]benzamide]: the inhibition at 10 µM in test [1] amounted to 98%; in test [2], 76%; in test [4], 84%.
The matching figures for `CC(=O)N1CCN(C(=O)c2ccc(/C=C/c3n[nH]c4ccccc34)cc2)CC1` [Compound 13, (E)-4-Acetyl-1-{4-[2-(1H-indazol-3-yl)vinyl]benzoyl}piperazine]: 99%, 94% and 90%.
